This passage reports TGI results from PubChem BioAssay (NCI).

SMILES strings stand for the structures.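 The compound was tested at five concentrations on cells cultured in 96-well plates, with a 48-hour exposure period. TGI: concentration producing complete growth inhibition.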 Where only a bound is given, the exact number is not on record here.

Test systems include SK-OV-3 ovarian; EKVX NSCLC; ACHN renal; OVCAR-4 ovarian; HOP-62 NSCLC; 786-0 renal; UO-31 renal; HL-60(TB) leukemia; MCF7 breast; OVCAR-5 ovarian; PC-3 prostate.
What all share (experiment): inhibition of tumour cell growth, NCI panel, 48 h

As to `CC1(C)C/C=C\CCC(O)C(O)CCC(C)(C)C1=O` (stereo not given), the TGI in the assay on SK-OV-3 ovarian, in the assay on EKVX NSCLC, with ACHN renal, with OVCAR-4 ovarian, with HOP-62 NSCLC and with 786-0 renal was over 100 µM in each case. Further, the TGI in the assay on UO-31 renal, in the assay with HL-60(TB) leukemia, in the assay with MCF7 breast, in the assay on OVCAR-5 ovarian and in the assay with PC-3 prostate was over 100 µM in each case.

On to `COc1ccc(OC/C(N=Cc2cccnc2)=N/NC(=O)c2ccncc2)cc1`, for which the TGI in the assay with SK-OV-3 ovarian, in the assay on EKVX NSCLC, in the assay with ACHN renal, in the assay on OVCAR-4 ovarian, in the assay with HOP-62 NSCLC and in the assay with 786-0 renal was over 100 µM throughout. In addition, the TGI in the assay on HL-60(TB) leukemia, in the assay with MCF7 breast, in the assay on OVCAR-5 ovarian and with PC-3 prostate was over 100 µM throughout.

On to `O=C1N(c2ccccc2)N=C2c3ccncc3C3=NN(c4ccccc4)C(=O)C123` (stereo not given), for which the TGI in the assay on SK-OV-3 ovarian, in the assay on EKVX NSCLC, in the assay with ACHN renal, in the assay on OVCAR-4 ovarian, with HOP-62 NSCLC and in the assay with 786-0 renal was over 100 µM in each case. Also, the TGI in the assay on UO-31 renal, in the assay on HL-60(TB) leukemia, in the assay with MCF7 breast, with OVCAR-5 ovarian and in the assay with PC-3 prostate was over 100 µM each time.

`O=c1[nH]nc(-c2ccccc2)c2[nH]c3c(c12)CCCc1ccccc1-3`: the TGI was over 100 µM with SK-OV-3 ovarian; over 100 µM with EKVX NSCLC; 38.9 µM in the assay with ACHN renal; 33.6 µM in the assay on OVCAR-4 ovarian; 46.4 µM with HOP-62 NSCLC; 28 µM in the assay with 786-0 renal. In addition, the TGI with UO-31 renal is 34.7 µM; in the assay with HL-60(TB) leukemia it was 46.2 µM; with MCF7 breast, 50.9 µM; in the assay on OVCAR-5 ovarian it was 34.8 µM; in the assay on PC-3 prostate, 58.5 µM.

`Cc1cccc2c1CC1(Cc3c(C)cccc3C1=O)C2=O`: the TGI in the assay with SK-OV-3 ovarian, with EKVX NSCLC, in the assay with ACHN renal, with OVCAR-4 ovarian, in the assay on HOP-62 NSCLC and with 786-0 renal was over 100 µM each time. The TGI with UO-31 renal, with HL-60(TB) leukemia, with MCF7 breast, with OVCAR-5 ovarian and in the assay on PC-3 prostate was over 100 µM throughout.

Consider `ClC1(Cl)C2CCOC21n1cnc2ccccc21` (stereo not given), for which the TGI with SK-OV-3 ovarian, in the assay with EKVX NSCLC, in the assay on OVCAR-4 ovarian, in the assay on HOP-62 NSCLC, in the assay with 786-0 renal and with UO-31 renal was over 100 µM each time. For the same compound, the TGI with HL-60(TB) leukemia, with MCF7 breast, with OVCAR-5 ovarian and with PC-3 prostate was over 100 µM in each case.

As to `O=C1CCCC1C(O)(C(F)(F)Cl)C(F)(F)Cl` (stereo not given), the TGI in the assay on SK-OV-3 ovarian, in the assay with EKVX NSCLC, in the assay with ACHN renal, in the assay on OVCAR-4 ovarian, in the assay with HOP-62 NSCLC and in the assay on 786-0 renal was over 10 µM in each case. The TGI in the assay with HL-60(TB) leukemia, in the assay with MCF7 breast, with OVCAR-5 ovarian and with PC-3 prostate was over 10 µM in each case.

Consider `CSc1c(C#N)c(=O)n(N)c2n[nH]c(C)c12`, for which the TGI in the assay with SK-OV-3 ovarian, in the assay with EKVX NSCLC, in the assay with OVCAR-4 ovarian, in the assay with 786-0 renal, with UO-31 renal and in the assay on HL-60(TB) leukemia was over 100 µM in each case. The TGI in the assay with MCF7 breast and in the assay on PC-3 prostate was over 100 µM in each case.

Regarding `COc1cc(CNC(=O)CCCCCCCCCCSC#N)ccc1O`, the TGI in the assay with SK-OV-3 ovarian was determined as 25.8 µM; in the assay on EKVX NSCLC, 54.6 µM; in the assay on OVCAR-4 ovarian, 57.6 µM; in the assay with 786-0 renal it was 41.5 µM; with UO-31 renal it was 21.9 µM; with HL-60(TB) leukemia it was 28.9 µM. For the same compound, the TGI in the assay on MCF7 breast came to 34.9 µM; in the assay with OVCAR-5 ovarian it was 85.8 µM; in the assay with PC-3 prostate, 27.5 µM.

As for `CCN(CC)C(=O)N1CN(c2ccccc2)C2(CCN(CCCC3(c4ccc(F)cc4)OCCO3)CC2)C1=O`, the TGI with SK-OV-3 ovarian was 61.5 µM; in the assay on EKVX NSCLC, 90.2 µM; in the assay on OVCAR-4 ovarian, over 100 µM; in the assay with HOP-62 NSCLC, 18.6 µM; with 786-0 renal, 33.6 µM; in the assay with UO-31 renal, 35.9 µM. Further, the TGI is 27.9 µM in the assay on HL-60(TB) leukemia, 19.9 µM in the assay on MCF7 breast and 34.9 µM in the assay with PC-3 prostate.

Turning to `Cc1c(OCc2cccc3ccccc23)ccc2c(=O)cc(S)oc12`, the TGI in the assay with EKVX NSCLC, in the assay with ACHN renal, with OVCAR-4 ovarian, in the assay with HOP-62 NSCLC, in the assay on 786-0 renal and in the assay on UO-31 renal was over 100 µM throughout. The TGI with HL-60(TB) leukemia is 59.7 µM; with MCF7 breast it was over 100 µM; in the assay with OVCAR-5 ovarian, over 100 µM; in the assay on PC-3 prostate, over 100 µM.

On to `NCCCCNCCCNC(=O)c1csc(-c2nc(CCN)sc2Cl)n1`, for which the TGI in the assay on SK-OV-3 ovarian, with EKVX NSCLC, in the assay with ACHN renal, in the assay on HOP-62 NSCLC, with 786-0 renal and in the assay on UO-31 renal was over 100 µM throughout. Moreover, the TGI in the assay with HL-60(TB) leukemia, in the assay on MCF7 breast, in the assay on OVCAR-5 ovarian and with PC-3 prostate was over 100 µM in each case.

On to `COC(=O)Cc1c(-c2c(CC(=O)OC)c3ccccc3n2C2OC(COC3OC(COC(C)=O)C(OC(C)=O)C(OC(C)=O)C3OC(C)=O)C(O)C(O)C2O)[nH]c2ccccc12` (stereo not given), for which the TGI is over 100 µM in the assay with SK-OV-3 ovarian; over 100 µM with EKVX NSCLC; over 100 µM in the assay on ACHN renal; 70.9 µM in the assay with HOP-62 NSCLC; over 100 µM in the assay with 786-0 renal; over 100 µM in the assay with UO-31 renal. In addition, the TGI with HL-60(TB) leukemia, in the assay on MCF7 breast, in the assay on OVCAR-5 ovarian and in the assay with PC-3 prostate was over 100 µM in each case.
